# Experimental data reported in patent US11352322B2, “Cyclopropyl-amide compounds as dual LSD1/HDAC inhibitors” (Jubilant Epicore LLC, priority 2016, dated 2022).
# Structures can show the parent of a compound that is named as a salt. Where two headings read alike, the source gives them in different places.
# How the values were obtained:
# [1] = biological target: HDAC6 human recombinant enzyme (Homo sapiens (Human), UniProt Q9UBN7); experiment: Histone Deacetylase Assay (BPS Biosciences), HDAC6; format: biochemical
# Excerpt: Histone Deacetylase Assay (BPS Biosciences)
# Histone deacetylase assay was done as per manufacturer's instructions.
# MM1S = experiment: Anticancer activity: Alamar Blue assay, MM1S; format: cell-based; conditions: Homo sapiens, MM1.S, read-out: MM1S EC50
# LSD1 = LSD1 (Homo sapiens (Human), UniProt O60341); experiment: TR-FRET Assay for LSD1; conditions: read-out: LSD1 IC50
# Protocol: TR-FRET Assay for LSD1 (Perkin Elmer)
# Tranylcypromine (TCP), LSD1 inhibitor was procured from Selleckchem. […] Stop Solution containing 300 μM tranylcypromine in 1× LANCE Detection Buffer was added to the wells and incubated for 5 min at RT. Then, Detection mix containing 2 nM Eu-Ab and 50 nM ULight-Streptavidin in 1× LANCE Detection Buffer was prepared and added to the reaction mix. This mixture was incubated for 1 hour at room temperature.
# [2] = Metabolic stability in liver microsomes, HLM; conditions: 1 μM, NADPH
# Protocol: (§1) The microsomal suspension was prepared by adding liver microsomes to 100 mM potassium phosphate buffer (pH7.4) to give a final protein concentration of 0.5 mg/mL. The stock solution of NCE (10 mM in DMSO) was added to the microsomes to provide a final concentration of 1 μM. […] Samples were vortexed and centrifuged at 5,000 rpm for 10 min to remove proteins. Supernatant were analyzed on LC-MS/MS.
# [3] = Metabolic stability in liver microsomes, MLM; conditions: 1 μM, NADPH
# Protocol: as §1
# HDAC6 human recombinant enzyme, sequence (Q9UBN7 whole entry): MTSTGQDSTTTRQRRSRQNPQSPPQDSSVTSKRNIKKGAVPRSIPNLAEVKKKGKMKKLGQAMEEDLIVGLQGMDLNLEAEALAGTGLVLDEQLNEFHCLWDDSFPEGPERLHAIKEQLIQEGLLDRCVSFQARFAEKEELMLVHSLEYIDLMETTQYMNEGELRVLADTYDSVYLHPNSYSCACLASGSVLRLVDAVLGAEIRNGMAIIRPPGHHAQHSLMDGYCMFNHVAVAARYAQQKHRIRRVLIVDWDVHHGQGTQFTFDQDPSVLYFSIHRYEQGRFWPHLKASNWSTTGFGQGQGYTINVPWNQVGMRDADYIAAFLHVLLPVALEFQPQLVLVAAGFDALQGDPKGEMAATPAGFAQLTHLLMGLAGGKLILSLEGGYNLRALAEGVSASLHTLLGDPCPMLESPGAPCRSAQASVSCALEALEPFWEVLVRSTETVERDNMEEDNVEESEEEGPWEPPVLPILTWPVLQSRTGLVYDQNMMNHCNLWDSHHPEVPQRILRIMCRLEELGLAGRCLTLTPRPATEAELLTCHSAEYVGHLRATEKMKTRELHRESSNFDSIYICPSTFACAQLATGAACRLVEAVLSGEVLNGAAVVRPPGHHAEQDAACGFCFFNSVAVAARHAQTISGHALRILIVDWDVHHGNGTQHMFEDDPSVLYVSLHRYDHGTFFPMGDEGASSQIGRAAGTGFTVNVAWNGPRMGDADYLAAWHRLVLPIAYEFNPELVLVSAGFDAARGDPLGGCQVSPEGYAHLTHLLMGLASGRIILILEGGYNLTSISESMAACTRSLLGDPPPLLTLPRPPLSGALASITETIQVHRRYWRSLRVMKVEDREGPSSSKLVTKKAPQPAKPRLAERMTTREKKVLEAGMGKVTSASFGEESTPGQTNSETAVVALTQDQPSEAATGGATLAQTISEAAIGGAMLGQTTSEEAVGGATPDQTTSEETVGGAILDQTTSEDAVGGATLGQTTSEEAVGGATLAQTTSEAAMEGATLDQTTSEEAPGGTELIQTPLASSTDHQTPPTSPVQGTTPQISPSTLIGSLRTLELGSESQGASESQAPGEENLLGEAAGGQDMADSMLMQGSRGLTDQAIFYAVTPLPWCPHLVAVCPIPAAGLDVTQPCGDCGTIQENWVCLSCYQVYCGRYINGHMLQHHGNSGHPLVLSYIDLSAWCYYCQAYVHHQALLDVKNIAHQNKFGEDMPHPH
SMILES,IC50 [1] [µM],EC50 (MM1S; MM1S cells) [µM],IC50 (LSD1) [µM],Metabolic stability HLM % remaining in 30 min [2],Metabolic stability MLM % remaining in 30 min [3],EC50 (MM1S) [µM]
"O=C(NO)c1ccc(CCCN2CC(CNC3CC3c3ccc(F)cc3)C2)cc1 (stereo not shown) [Example 48, 4-(3-(3-(((2-(4-fluorophenyl)cyclopropyl)amino)methyl)azetidin-1-yl)propyl)-N-hydroxy benzamide TFA Salt]",0.184,0.025,0.029,85%,< 5%,
Nc1ccccc1NC(=O)c1cnc(NCCN2CCC(CNC3CC3c3ccc(F)cc3)CC2)nc1 (stereo not shown) [Example 150],> 10,0.411,0.016,>95/>95%,>95/>95%,
"Nc1ccccc1NC(=O)c1ccc(CCC(=O)N2CCC(CNC3CC3c3ccccc3)CC2)cc1 (stereo not shown) [Example 134, N-(2-aminophenyl)-4-(3-oxo-3-(4-(((2-phenylcyclopropyl)amino)methyl)piperidin-1-yl)propyl)benzamide TFA Salt]",> 10,,0.042,10/10%,10/10%,0.174
"Nc1ccccc1NC(=O)c1ccc(CN2CCC(CN[C@@H]3C[C@H]3c3ccccc3)CC2)cc1 [Example 140, N-(2-aminophenyl)-4-((4-((((1R,2S)-2-phenylcyclopropyl)amino)methyl)piperidin-1-yl)methyl)benzamide TFA Salt]",> 10,,0.002,85%,83%,0.002
"O=C(NO)c1ccc(/C=C/C(=O)N2CCC(CN[C@H]3C[C@@H]3c3ccc(F)cc3)CC2)cc1 [Example 115, 4-((E)-3-(4-((((1S,2R)-2-(4-fluorophenyl)cyclopropyl)amino)methyl)piperidin-1-yl)-3-oxoprop-1-en-1-yl)-N-hydroxybenzamide TFA Salt]",0.053,0.01,0.065,75%,45%,
"Cn1ccc(-c2ccc(C3CC3NCC3CCN(CCCc4ccc(C(=O)NO)cc4)CC3)cc2)cc1=O (stereo not shown) [Example 60, N-hydroxy-4-(3-(4-(((2-(4-(1-methyl-2-oxo-1,2-dihydropyridin-4-yl)phenyl)cyclopropyl)amino)methyl)piperidin-1-yl)propyl)benzamide TFA Salt]",0.046,,0.021,73%,72%,
"O=C(NO)c1ccc(CN2CCn3cc(CNC4CC4c4ccc(F)cc4)nc3C2)cc1 (stereo not shown) [Example 80, 4-((2-(((2-(4-fluorophenyl)cyclopropyl)amino)methyl)-5,6-dihydroimidazo[1,2-a]pyrazin-7(8H)-yl)methyl)-N-hydroxybenzamide TFA Salt]",0.068,,1.5,82%,87%,0.331
"O=C(NO)c1ccc(CN2CCc3ccc(CNC4CC4c4ccc(F)cc4)cc3C2)cc1 (stereo not shown) [Example 79, 4-((7-(((2-(4-fluorophenyl)cyclopropyl)amino)methyl)-3,4-dihydroisoquinolin-2(1H)-yl)methyl)-N-hydroxybenzamide TFA Salt]",0.024,,0.079,18%,6%,0.039
"O=C(NO)c1ccc(CCN2CCC(CNC3CC3c3ccccc3)CC2)cc1 (stereo not shown) [Example 42, N-hydroxy-4-(2-(4-(((2-phenylcyclopropyl)amino)methyl)piperidin-1-yl)ethyl)benzamide TFA Salt]",0.49,0.19,0.015,,,
"Nc1ccccc1NC(=O)c1ccc(CCCn2cc(CNC3CC3c3ccccc3)nn2)cc1 (stereo not shown) [Example 137, N-(2-aminophenyl)-4-(3-(4-(((2-phenylcyclopropyl)amino)methyl)-1H-1,2,3-triazol-1-yl)propyl)benzamide TFA Salt]",> 10,0.126,0.139,,,
"O=C(NO)c1ccc(CCCC2CCN(C(=O)CNC3CC3c3ccccc3)CC2)cc1 (stereo not shown) [Example 93, N-hydroxy-4-(3-(1-(2-((2-phenylcyclopropyl)amino)acetyl)piperidin-4-yl)propyl)benzamide TFA Salt]",0.187,1.04,0.072,,,
"O=C(NO)c1ccc(C(=O)NCCN2CCC(CNC3CC3c3ccccc3)CC2)cc1 (stereo not shown) [Example 89, N-hydroxy-N4-(2-(4-(((2-phenylcyclopropyl)amino)methyl)piperidin-1-yl)ethyl)terephthalamide TFA Salt]",0.72,0.311,0.02,,,
"O=C(NO)c1ccc(OCCN2CCC(CNC3CC3c3ccc(-c4ccc(F)cc4)cc3)CC2)nc1 (stereo not shown) [Example 98, 6-(2-(4-(((2-(4′-fluoro-[1,1′-biphenyl]-4-yl)cyclopropyl)amino)methyl)piperidin-1-yl)ethoxy)-N-hydroxynicotinamide TFA Salt]",5.96,> 10,0.037,,,
"O=C(NO)c1ccc(S(=O)(=O)NCCN2CCC(CNC3CC3c3ccc(F)cc3)CC2)cc1 (stereo not shown) [Example 87, 4-(N-(2-(4-(((2-(4-fluorophenyl)cyclopropyl)amino)methyl)piperidin-1-yl)ethyl)sulfamoyl)-N-hydroxybenzamide TFA Salt]",1.06,9.11,0.025,,,
"Nc1ccccc1NC(=O)c1ccc(Cn2cc(CNC3CC3c3ccccc3)nn2)cc1 (stereo not shown) [Example 146, N-(2-aminophenyl)-4-((4-(((2-phenylcyclopropyl)amino)methyl)-1H-1,2,3-triazol-1-yl)methyl)benzamide TFA Salt]",> 10,0.106,0.069,,,
"O=C(NO)c1ccc2c(c1)CN(C(=O)CCCN1CCC(CNC3CC3c3ccccc3)CC1)C2 (stereo not shown) [Example 109, N-hydroxy-2-(4-(4-(((2-phenylcyclopropyl)amino)methyl)piperidin-1-yl)butanoyl)isoindoline-5-carboxamide TFA Salt]",0.107,1.1,0.024,,,
"CN(C)CCNC(=O)c1ccc(C2CC2NCC2CCN(CCCc3ccc(C(=O)NO)cc3)CC2)cc1 (stereo not shown) [Example 55, N-(2-(dimethylamino)ethyl)-4-(2-(((1-(3-(4-(hydroxycarbamoyl)phenyl)propyl)piperidin-4-yl)methyl)amino)cyclopropyl)benzamide TFA Salt]",0.13,,0.022,40%,36%,
"O=C(NO)c1cccc(CNC2CC2c2ccccc2)c1 (stereo not shown) [Example 27, N-hydroxy-3-(((2-phenylcyclopropyl)amino)methyl)benzamide TFA]",> 1,,0.016,75%,51%,
"Nc1ccccc1NC(=O)c1ccc(Cn2cc(CNC3CC3c3ccccc3)cn2)cc1 (stereo not shown) [Example 145, N-(2-aminophenyl)-4-((4-(((2-phenylcyclopropyl)amino)methyl)-1H-pyrazol-1-yl)methyl)benzamide TFA Salt]",> 10,0.123,0.061,,,
"Nc1ccccc1NC(=O)c1ccc(CCCn2cc(CNC3CC3c3ccccc3)cn2)cc1 (stereo not shown) [Example 138, N-(2-aminophenyl)-4-(3-(4-(((2-phenylcyclopropyl)amino)methyl)-1H-pyrazol-1-yl)propyl)benzamide TFA Salt]",> 10,0.065,0.099,,,
"O=C(NO)c1ccc(S(=O)(=O)N2CCC(CNC3CC3c3ccccc3)CC2)cc1 (stereo not shown) [Example 85, N-hydroxy-4-((4-(((2-phenylcyclopropyl)amino)methyl)piperidin-1-yl)sulfonyl)benzamide TFA Salt]",0.575,> 10,0.062,,,
"O=C(NO)c1ccc(CCCN2CCC(CNC3CC3c3ccc(-c4ccc(C(F)(F)F)nc4)cc3)CC2)cc1 (stereo not shown) [Example 66, N-hydroxy-4-(3-(4-(((2-(4-(6-(trifluoromethyl)pyridin-3-yl)phenyl)cyclopropyl)amino)methyl)piperidin-1-yl)propyl)benzamide TFA Salt]",0.1,,0.019,79%,85%,
"Nc1ccccc1NC(=O)c1ccc(CCC(=O)N2CCC(NC3CC3c3ccccc3)CC2)cc1 (stereo not shown) [Example 133, N-(2-aminophenyl)-4-(3-oxo-3-(4-((2-phenylcyclopropyl)amino)piperidin-1-yl)propyl)benzamide TFA Salt]",> 10,,0.04,19%,9%,
"O=C(NO)c1cnc(N2CCC(CNC3CC3c3ccc(-c4ccc(F)cc4)cc3)CC2)nc1 (stereo not shown) [Example 15, 2-(4-(((2-(4′-fluoro-[1,1′-biphenyl]-4-yl)cyclopropyl)amino)methyl)piperidin-1-yl)-N-hydroxypyrimidine-5-carboxamide TFA Salt]",0.134,0.012,0.095,,,
"O=C(NO)c1ccc(CCCn2cc(CNC3CC3c3ccccc3)nn2)cc1 (stereo not shown) [Example 77, N-hydroxy-4-(3-(4-(((2-phenylcyclopropyl)amino)methyl)-1H-1,2,3-triazol-1-yl)propyl)benzamide TFA Salt]",0.071,0.07,0.065,,,
